Source: article PMC5617480 (Oncotarget, 2017)

Key:
[1] = system: F32T+H20M (DNA, duplex) CCGCATCTCTACATTCAAGAACTGGCATGCGG/GCCAGTTCTTGAATGTAGAG; test: FRET melting; conditions: 100 mM K+; 10 mM Tris-HCl, pH 7.35; 2.0 μM compound, 1.0 μM DNA
HL-7702 normal cells = conditions: ref [1], cited from earlier work; for selectivity index factor, IC50 (normal HL-7702 cells)/IC50 (BEL-7404 tumor cells): 48 h; for IC50: HL-7702, 48 h
c-kit-1 = system: c-kit-1; set-up: method as in earlier work; conditions: ref [1], cited from earlier work; for ctDNADC50/c-kit-1DC50: FID selectivity ratio; for c-kit-1DC50: FID
ds26 = system: ds26; set-up: method as in earlier work; conditions: ref [1], cited from earlier work; for ctDNADC50/ds26DC50: FID selectivity ratio; for ds26DC50: FID
[2] = Solubility in water by UV-vis spectroscopy; assay type: physicochemical; conditions: H2O
Method: We next determined the solubility and stability of complexes 4, 5, and 6 in H2O and TBS buffer by UV-vis spectroscopy. […] TBS buffer (1% DMSO, 100 mM KCl, and 10 mM pH 7.35 Tris-HCl) was used to mimic normal physiological conditions.

BEL-7404 cells = test: Cell cycle analysis (PI flow cytometry); assay type: cell-based, human; conditions: BEL-7404, 10 μM, 48 h; untreated 24.76%
Method: Platinum(II)-based drugs were widely used in anticancer chemotherapies, therefore, we performed experiments to test the potency of chiral platinum(II) complexes 4–6 for inducing senescence and apoptosis in BEL-7404 cells. […] We next investigated the effect of complexes 4–6 on the induction of apoptosis. BEL-7404 cells were incubated with complexes 4 (10 and 20 μM), 5 (10 and 20 μM) and 6 (5, 10 and 20 μM) for 24 h, respectively, and then these cells staining with PI and Annexin-V-FITC were determined by flow cytometry (Figure 3A and Supplementary Figure 18). As shown in Figure 3A and Supplementary Figure 18, after treated of complexes 4–6 with 10 μM for 24 h, the percentage of apoptotic cells (including early-stage and late-stage, Q2+Q4) was 13.1%, 7.0% and 25.4%, respectively, whereas the normal cells was only 6.1%. We further investigated the ability of complexes 4–6 (5, 10 and 20 μM) to induce BEL-7404 cell cycle arrest (Figure 3B and Supplementary Figure 19). Cells were treated with complexes 4–6 at 10 μM for 48 h, the cell cycle arrest was determined by using flow cytometry. […]
Apoptosis analysis c-myc antibody, or anti-β-actin primary antibody and the Apoptosis was detected by flow cytometric analysis corresponding secondary antibody were used to detect of annexin V staining. […] Then, cells were incubated with annexin V-FITC and PI for 1.0 h at Staining for SA-β-Gal activity was carried out room temperature in the dark and immediately analyzed according to Moore and Chen reports. […] The data are presented as biparametric After the long-term incubation with complexes 4–6, the dot plots showing PI red fluorescence vs annexin V-FITC growth medium was aspirated and the BEL-7404 cells green fluorescence. were fixed in 2% formaldehyde/0.2% glutaraldehyde for 15.0 min at room temperature. […] Finally, the extraction, RT-PCR, and the selective binding to G4s by BEL-7404 cell cycle was determined with FACS Calibur complexes 4–6 was according to the our previous reported flow cytometer (BD) and analyzed using Cell Quest. […]

HTG21 G4 = test: Fluorescence titration (Stern-Volmer quenching); assay type: binding, human; conditions: HTG21 G4-DNA, compound 20 μM, 100 mM K+
Method: We asked whether chiral platinum(II) complexes 4–6 have the ability to bind to G-quadruplex DNA. To address this, FRET assays, CD spectroscopy, G4-FID assays, and fluorescence titration analysis were performed. […] For G4-HTG21, the ^G4DC50 values of complexes 4–6 were 1.23, 1.26 and 0.99 μM, respectively; while, for G4-Pu27, the ^G4DC50 values were 1.01, 0.89, and 0.82 μM, respectively. In addition, the ^ctDNADC50/^G4DC50 ratio of the HTG21 and Pu27 G4s treated with complexes 4–6 was in the range of 50.54-90.65 and 71.56-110.67 folds, respectively. To further evaluate the binding ability of complexes 4–6 to Pu27 and HTG21G4s, CD spectroscopy and fluorescence titration analysis were performed. […] The quenching ability of complexes 4–6 to HTG21 and Pu27 G4 DNA fluorescence can be quantitatively estimated by their respective quenching constant (Kq), which was derived from the Stern-Volmer quenching equation. […] Finally, the selective binding of complexes 4–6 towards G4 DNA was analyzed by FRET-melting assays. […] In contrast, the ΔTm value for the F32T+H20M duplex DNA in the presence of complexes 4–6 was 1.18, 1.34, and 0.78 °C under the same conditions (Figure 4A). Altogether, our data indicated complexes 4–6, especially complex 6, is the best binder to G4 DNA, which caused DNA complex displaying the highest thermodynamic stability. […]
Supplementary Figure 25: Fluorescence emission spectra of compounds (20 μM) in 100 mM K+ solution in the absence and
presence of human telomeric G-quadruplex DNA with 4 (A), 5 (B) and 6 (C), respectively.

Molecule: O=C(NCC(O)CO)c1cnc2c3c(cccc13)-c1ccccc1C2=O.[Cl-].[Cl-].[Pt+2] (racemic) [ligand 1, R/S-(±)-FOA]
- ΔTm [1]: 1.18 °C
- selectivity index factor, IC50 (normal HL-7702 cells)/IC50 (BEL-7404 tumor cells) (HL-7702 normal cells): > 5.8
- IC50 (HL-7702 normal cells): > 100 µM
- ctDNADC50/c-kit-1DC50 (c-kit-1): 0.96
- c-kit-1DC50 (c-kit-1): 66.35 µM
- ctDNADC50/ds26DC50 (ds26): 5.31
- ds26DC50 (ds26): 12.05 µM

Molecule: O=C(NC[C@@H](O)CO)c1cnc2c3c(cccc13)-c1ccccc1C2=O.[Cl-].[Cl-].[Pt+2] [ligand 2, R-(+)-FOA]
- ΔTm [1]: 1.34 °C
- selectivity index factor, IC50 (normal HL-7702 cells)/IC50 (BEL-7404 tumor cells) (HL-7702 normal cells): > 4.9
- IC50 (HL-7702 normal cells): > 100 µM
- ctDNADC50/c-kit-1DC50 (c-kit-1): < 0.40
- c-kit-1DC50 (c-kit-1): > 100 µM
- ctDNADC50/ds26DC50 (ds26): 2.77
- ds26DC50 (ds26): 14.41 µM

Molecule: O=C(NC[C@H](O)CO)c1cnc2c3c(cccc13)-c1ccccc1C2=O.[Cl-].[Cl-].[Pt+2] [ligand 3, S-(–)-FOA]
- ΔTm [1]: 0.78 °C
- selectivity index factor, IC50 (normal HL-7702 cells)/IC50 (BEL-7404 tumor cells) (HL-7702 normal cells): 5.3
- IC50 (HL-7702 normal cells): 81.4 ± 2.7 µM
- ctDNADC50/c-kit-1DC50 (c-kit-1): 36.66
- c-kit-1DC50 (c-kit-1): 2.45 µM
- ctDNADC50/ds26DC50 (ds26): 11.40
- ds26DC50 (ds26): 7.88 µM

Molecule: cis-[PtCl2(R-(+)-FOA)] [complex 5]
- solubility in water [2]: 1000 µg/mL
- percentage of cells at S phase (BEL-7404 cells): 32.33%
- Extent of quenching (%) (HTG21 G4): 27.21%
- Kq (quenching constant, Stern-Volmer) (HTG21 G4): 4.36×10^4 L·mol–1

Molecule: cis-[PtCl2(R/S-(±)-FOA)] [complex 4]
- solubility in water [2]: 680 µg/mL
- percentage of cells at S phase (BEL-7404 cells): 37.59%
- Extent of quenching (%) (HTG21 G4): 27.34%
- Kq (quenching constant, Stern-Volmer) (HTG21 G4): 4.60×10^4 L·mol–1

Molecule: cis-[PtCl2(S-(–)-FOA)] [complex 6]
- solubility in water [2]: 2000 µg/mL
- percentage of cells at S phase (BEL-7404 cells): 38.61%
- Extent of quenching (%) (HTG21 G4): 28.42%
- Kq (quenching constant, Stern-Volmer) (HTG21 G4): 4.65×10^4 L·mol–1
